This is an account of results in patent US12187742B2 (XRAD Therapeutics, Inc., priority 2018, dated 2025).

One assay deals with ATM (Homo sapiens (Human), UniProt Q13315). In words: ATM in Cell Western Assay (pKAP1 in etoposide-treated MCF-7 cells). The class given is cell-based. The procedure, abridged:
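After paraformaldehyde fixation and Triton X-100 permeabilization, immunostained plates were read by infrared scanning (ODYSSEY CLx). Compound was given as 10 doses, 3-fold dilutions from a 1 μM final top concentration.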

A further assay has as its target DNA-PK (Homo sapiens (Human), UniProt P78527). In words: DNA-PK Enzyme-Linked Immunosorbent Assay (phosphorylation of GST-p53 (1-101) peptide). The conditions noted are these: ELISA. The class given is biochemical. The essentials: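 Inhibition measured by 450 nm absorbance after HRP/TMB detection of phospho-Ser15 on immobilized GST-p53 (1-101). The kinase reaction used 0.1 μg/mL DNA-PK and 20 μM ATP, 1 h at 25 °C. Ten 3-fold compound dilutions, top final concentration 100 nM.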

Where [1] appears, read: MCF-7 cells, etoposide 100 μM, 1 hr, pKAP1 readout.
Setting [2] is: pKAP1 in etoposide-treated MCF-7 cells.

Counter-ions that a name gives are not always drawn. Bounds are passed on as bounds.

Chain of ATM (Q13315 whole entry): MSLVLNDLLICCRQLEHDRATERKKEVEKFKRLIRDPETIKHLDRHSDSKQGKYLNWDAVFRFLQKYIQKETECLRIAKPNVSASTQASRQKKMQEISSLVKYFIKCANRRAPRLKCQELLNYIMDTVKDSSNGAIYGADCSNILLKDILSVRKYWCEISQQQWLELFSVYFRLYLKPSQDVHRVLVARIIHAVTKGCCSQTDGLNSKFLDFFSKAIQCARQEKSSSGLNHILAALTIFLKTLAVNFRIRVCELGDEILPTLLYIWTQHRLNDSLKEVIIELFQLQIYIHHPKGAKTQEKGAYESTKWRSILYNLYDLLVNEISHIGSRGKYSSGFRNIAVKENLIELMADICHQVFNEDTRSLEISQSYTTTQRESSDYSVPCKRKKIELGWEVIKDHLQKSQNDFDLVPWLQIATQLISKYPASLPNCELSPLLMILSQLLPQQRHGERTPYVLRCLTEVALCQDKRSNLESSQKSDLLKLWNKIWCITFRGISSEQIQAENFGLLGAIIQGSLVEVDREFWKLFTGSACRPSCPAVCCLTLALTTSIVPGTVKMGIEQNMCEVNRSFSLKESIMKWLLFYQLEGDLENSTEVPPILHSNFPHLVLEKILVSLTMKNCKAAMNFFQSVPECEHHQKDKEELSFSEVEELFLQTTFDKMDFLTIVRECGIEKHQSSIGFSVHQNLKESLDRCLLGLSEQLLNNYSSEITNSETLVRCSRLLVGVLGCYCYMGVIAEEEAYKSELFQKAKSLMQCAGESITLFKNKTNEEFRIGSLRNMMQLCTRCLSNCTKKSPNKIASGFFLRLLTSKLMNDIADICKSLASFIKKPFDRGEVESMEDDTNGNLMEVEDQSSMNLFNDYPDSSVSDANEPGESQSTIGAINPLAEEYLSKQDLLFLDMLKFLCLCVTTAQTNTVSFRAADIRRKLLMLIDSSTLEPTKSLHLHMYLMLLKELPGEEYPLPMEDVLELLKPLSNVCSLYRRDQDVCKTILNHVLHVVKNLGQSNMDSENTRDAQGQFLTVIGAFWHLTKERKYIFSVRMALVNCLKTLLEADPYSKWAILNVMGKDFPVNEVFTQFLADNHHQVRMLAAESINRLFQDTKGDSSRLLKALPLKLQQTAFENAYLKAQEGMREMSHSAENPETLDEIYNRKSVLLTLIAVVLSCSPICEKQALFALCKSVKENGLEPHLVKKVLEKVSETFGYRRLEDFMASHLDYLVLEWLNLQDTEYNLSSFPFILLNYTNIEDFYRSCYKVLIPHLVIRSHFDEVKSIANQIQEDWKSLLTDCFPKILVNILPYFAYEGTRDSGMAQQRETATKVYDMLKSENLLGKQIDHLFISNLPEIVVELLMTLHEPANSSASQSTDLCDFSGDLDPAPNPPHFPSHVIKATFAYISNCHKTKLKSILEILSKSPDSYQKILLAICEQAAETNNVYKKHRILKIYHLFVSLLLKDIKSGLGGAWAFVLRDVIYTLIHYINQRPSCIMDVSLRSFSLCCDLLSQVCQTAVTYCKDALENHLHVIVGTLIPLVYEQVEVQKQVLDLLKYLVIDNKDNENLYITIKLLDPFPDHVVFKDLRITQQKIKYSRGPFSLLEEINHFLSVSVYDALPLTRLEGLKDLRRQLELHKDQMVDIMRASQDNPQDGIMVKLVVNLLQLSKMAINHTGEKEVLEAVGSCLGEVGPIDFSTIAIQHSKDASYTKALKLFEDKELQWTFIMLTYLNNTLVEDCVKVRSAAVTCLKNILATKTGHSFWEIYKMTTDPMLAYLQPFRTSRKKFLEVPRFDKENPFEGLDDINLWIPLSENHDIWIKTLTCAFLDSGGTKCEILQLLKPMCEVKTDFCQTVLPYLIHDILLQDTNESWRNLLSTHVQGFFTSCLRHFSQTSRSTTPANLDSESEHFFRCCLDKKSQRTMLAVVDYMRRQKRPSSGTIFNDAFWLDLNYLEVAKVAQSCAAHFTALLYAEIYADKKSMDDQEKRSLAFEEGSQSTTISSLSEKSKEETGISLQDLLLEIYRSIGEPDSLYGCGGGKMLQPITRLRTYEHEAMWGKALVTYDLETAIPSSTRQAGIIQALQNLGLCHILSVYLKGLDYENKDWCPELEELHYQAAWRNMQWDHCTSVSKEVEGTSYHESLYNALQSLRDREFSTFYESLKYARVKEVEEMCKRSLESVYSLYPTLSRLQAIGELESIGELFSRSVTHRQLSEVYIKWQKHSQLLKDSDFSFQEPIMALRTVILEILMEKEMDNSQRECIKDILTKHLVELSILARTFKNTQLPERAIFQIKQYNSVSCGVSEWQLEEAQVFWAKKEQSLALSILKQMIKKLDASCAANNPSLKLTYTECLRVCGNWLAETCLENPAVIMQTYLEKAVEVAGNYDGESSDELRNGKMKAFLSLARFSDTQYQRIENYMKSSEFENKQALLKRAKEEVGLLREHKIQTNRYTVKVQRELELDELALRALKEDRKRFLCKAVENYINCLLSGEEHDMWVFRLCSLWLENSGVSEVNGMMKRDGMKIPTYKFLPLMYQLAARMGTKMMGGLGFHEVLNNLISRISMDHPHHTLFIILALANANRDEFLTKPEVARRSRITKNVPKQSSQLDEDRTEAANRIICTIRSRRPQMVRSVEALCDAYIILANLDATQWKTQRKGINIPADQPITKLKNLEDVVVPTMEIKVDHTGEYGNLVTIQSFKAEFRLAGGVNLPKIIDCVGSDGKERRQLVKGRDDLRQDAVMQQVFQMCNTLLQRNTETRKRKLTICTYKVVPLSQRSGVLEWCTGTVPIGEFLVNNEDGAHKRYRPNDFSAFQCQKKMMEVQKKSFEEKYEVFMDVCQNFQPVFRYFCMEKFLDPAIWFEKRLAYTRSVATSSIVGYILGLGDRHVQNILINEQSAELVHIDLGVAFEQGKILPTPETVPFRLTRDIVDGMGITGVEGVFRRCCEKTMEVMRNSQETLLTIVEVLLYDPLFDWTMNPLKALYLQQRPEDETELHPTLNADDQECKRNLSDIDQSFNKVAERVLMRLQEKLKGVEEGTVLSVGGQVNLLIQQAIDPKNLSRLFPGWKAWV

In the case of `CN1CCCC(COc2ncc(-c3ccc4ncc5c(c4c3)C3(CC3)C(=O)N5C)cc2NS(=O)(=O)C2CC2)C1` (centres unmarked) [Example 86, N-(5-(3′-Methyl-2′-oxo-2′,3′-dihydrospiro[cyclopropane-1,1′-pyrrolo[2,3-c]quinolin]-8′-yl)-2-((1-methylpiperidin-3-yl)methoxy)pyridin-3-yl)cyclopropanesulfonamide], the IC50 on ATM (setting [1]) and on DNA-PK (ATP 20 μM) was 1 to 100 nM each time.

For the molecule `CCCS(=O)(=O)Nc1cc(-c2ccc3ncc4c(c3c2)C2(CC2)C(=O)N4C)cnc1OCCCN(C)C` [Example 77, N-(2-(3-(Dimethylamino)propoxy)-5-(3′-methyl-2′-oxo-2′,3′-dihydrospiro [cyclopropane-1,1′-pyrrolo [2,3-c]quinolin]-8′-yl)pyridin-3-yl)propane-1-sulfonamide], the IC50 on ATM (setting [1]) and against DNA-PK (ATP 20 μM) was 1 to 100 nM in each case.

Take `COc1cccc([C@H]2C[C@]3(C2)C(=O)N(C)c2cnc4cc(F)c(-c5cnc(OCCNC(C)C)c(NS(C)(=O)=O)c5)cc4c23)n1` [Example 428, cis-N-(5-(7′-Fluoro-3-(6-methoxypyridin-2-yl)-3′-methyl-2′-oxo-2′,3′-dihydrospiro[cyclobutane-1,1′-pyrrolo[2,3-c]quinolin]-8′-yl)-2-(2-(isopropylamino)ethoxy)pyridin-3-yl)methanesulfonamide]: the IC50 at ATM (setting [2]) and against DNA-PK (20 μM ATP) was 1 to 100 nM in each case.

As for `CN1C(=O)C2(CCC2)c2c1cnc1ccc(-c3cnc(N4CCC(N(C)C)C4)c(NS(C)(=O)=O)c3)cc21` (racemic) [Example 351, (rac)-N-(2-(3-(Dimethylamino)pyrrolidin-1-yl)-5-(3′-methyl-2′-oxo-2′,3′-dihydrospiro[cyclobutane-1,1′-pyrrolo[2,3-c]quinolin]-8′-yl)pyridin-3-yl)methanesulfonamide], the IC50 against ATM (setting [2]) and on DNA-PK (20 μM ATP) was 1 to 100 nM throughout.

As for `CN(C)CCCOc1ccc(-c2ccc3ncc4c(c3c2)C2(CC2)C(=O)N4C)cc1NS(=O)(=O)c1cccc(F)c1` [Example 90], the values for the IC50 against ATM (setting [1]) and against DNA-PK (ATP 20 μM) were 0.5 to 1 nM and 1 to 100 nM, respectively.

As for `CCS(=O)(=O)Nc1cc(-c2cc3c4c(cnc3cc2F)N(C)C(=O)C42CCC2)cnc1N1CC(N(C)C)C1` [Example 343, N-(2-(3-(Dimethylamino)azetidin-1-yl)-5-(7′-fluoro-3′-methyl-2′-oxo-2′,3′-dihydrospiro[cyclobutane-1,1′-pyrrolo[2,3-c]quinolin]-8′-yl)pyridin-3-yl)ethanesulfonamide formate], the IC50 on ATM (setting [2]) and on DNA-PK (20 μM ATP) was 1 to 100 nM throughout.

For `CN(C)CCCOc1ncc(-c2ccc3ncc4c(c3c2)C2(CCC2)C(=O)N4C)cc1NS(=O)(=O)N(C)C` [Example 149, 8′-{6-[3-(Dimethylamino)propoxy]-5-[(dimethylsulfamoyl)amino]pyridine-3-yl}-3′-methyl-2′,3′-dihydrospiro[cyclobutane-1,1′-pyrrolo[2,3-c]quinoline]-2′-one hydrochloride], the IC50 is less than 0.5 nM against ATM (setting [1]) and 0.5 to 1 nM against DNA-PK (ATP 20 μM).

As for `COc1ccc(S(=O)(=O)Nc2cc(-c3ccc4ncc5c(c4c3)C3(CC3)C(=O)N5C)cnc2OCCCN(C)C)cc1` [Example 93, N-(2-(3-(Dimethylamino)propoxy)-5-(3′-methyl-2′-oxo-2′,3′-dihydrospiro [cyclopropane-1,1′-pyrrolo[2,3-c]quinolin]-8′-yl)pyridin-3-yl)-4-methoxybenzenesulfonamide], the IC50 at ATM (setting [1]) was 1 to 100 nM; at DNA-PK (ATP 20 μM), less than 0.5 nM.

With `CN(C)CCCOc1ncc(-c2ccc3ncc4c(c3c2)C2(CCC2)C(=O)N4C)cc1NS(=O)(=O)c1ccccc1F` [Example 168, N-(2-(3-(Dimethylamino)propoxy)-5-(3′-methyl-2′-oxo-2′,3′-dihydrospiro[cyclobutane-1,1′-pyrrolo[2,3-c]quinolin]-8′-yl)pyridin-3-yl)-2-fluorobenzenesulfonamide hydrochloride], the IC50 against ATM (setting [1]) is 0.5 to 1 nM; against DNA-PK (ATP 20 μM) it was less than 0.5 nM.

For `CN1C(=O)C2(CCC2)c2c1cnc1ccc(-c3cnc(OCCCN4CCCCC4)c(NS(=O)(=O)C4CC4)c3)cc21` [Example 197, N-(5-(3-Methyl-2′-oxo-2′,3′-dihydrospiro[cyclobulane-1,1′-pyrrolo[2,3-c]quinolin]-8′-yl)-2-(3-(piperidin-1-yl)propoxy)pyridin-3-yl)cyclopropanesulfonamide hydrochloride], the values for the IC50 against ATM (setting [1]) and against DNA-PK (ATP 20 μM) were 1 to 100 nM and 0.5 to 1 nM, respectively.

As to `CN1C(=O)C2(CCC2)c2c1cnc1ccc(-c3cnc(OCCCN4CCC(F)C4)c(NS(C)(=O)=O)c3)cc21` (centres unmarked) [Example 279, N-(2-(3-(3-Fluoropyrrolidin-1-yl)propoxy)-5-(3′-methyl-2′-oxo-2′,3′-dihydrospiro[cyclobutane-1,1′-pyrrolo[2,3-c]quinolin]-8′-yl)pyridin-3-yl)methanesulfonamide], the values for the IC50 on ATM (setting [1]) and against DNA-PK (ATP 20 μM) were 1 to 100 nM and 0.5 to 1 nM, respectively.

Take `CNC1CN(c2ncc(-c3ccc4ncc5c(c4c3)C3(CCC3)C(=O)N5C)cc2NS(C)(=O)=O)C1` [Example 329, N-(5-(3′-Methyl-2′-oxo-2′,3′-dihydrospiro[cyclobutane-1,1′-pyrrolo[2,3-c]quinolin]-8′-yl)-2-(3-(methylamino)azetidin-1-yl)pyridin-3-yl) methanesulfonamide formate]: the IC50 is 1 to 100 nM against ATM (setting [1]) and less than 0.5 nM at DNA-PK (ATP 20 μM).

For the molecule `CN(C)CCCOc1ncc(-c2ccc3ncc4c(c3c2)C2(CC2)C(=O)N4C)cc1NS(=O)(=O)N1CCCC1` [Example 89, N-(2-(3-(Dimethylamino)propoxy)-5-(3′-methyl-2′-oxo-2′,3′-dihydrospiro [cyclopropane-1,1′-pyrrolo[2,3-c]quinolin]-8′-yl)pyridin-3-yl)pyrrolidine-1-sulfonamide hydrochloride], the values for the IC50 on ATM (setting [1]) and against DNA-PK (ATP 20 μM) were 0.5 to 1 nM and less than 0.5 nM, respectively.

Turning to `CN(C)CCCOc1ncc(-c2ccc3ncc4c(c3c2)C2(CCC2)C(=O)N4C)cc1NS(=O)(=O)c1cc(F)cc(F)c1` [Example 153, N-(2-(3-(Dimethylamino)propoxy)-5-(3′-methyl-2′-oxo-23′-dihydrospiro[cyclobutane-1,1′-pyrrolo[2,3-c]quinolin]-8′-yl)pyridin-3-yl)-3,5-difluorobenzenesulfonamide], the IC50 against ATM (setting [1]) is 1 to 100 nM; at DNA-PK (ATP 20 μM), 0.5 to 1 nM.

For `CN(C)CCCOc1ncc(-c2ccc3ncc4c(c3c2)C2(CCC2)C(=O)N4C)cc1NS(=O)(=O)c1cccc(C(F)(F)F)c1` [Example 150, N-(2-(3-(Dimethylamino)propoxy)-5-(3′-methyl-2′-oxo-2′,3′-dihydrospiro[cyclobutane-1,1′-pyrrolo[2,3-c]quinolin]-8′-yl)pyridin-3-yl)-3-(trifluoromethyl)benzenesulfonamide], the IC50 against ATM (setting [1]) and against DNA-PK (ATP 20 μM) was 1 to 100 nM throughout.

Regarding `CN1C(=O)C2(CC2)c2c1cnc1ccc(-c3cnc(OCCCN4CCCCC4)c(NS(=O)(=O)c4ccccc4)c3)cc21` [Example 67, N-(5-(3′-Methyl-2′-oxo-2′,3′-dihydrospiro[cyclopropane-1,1′-pyrrolo[2,3-c]quinolin]-8′-yl)-2-(3-(piperidin-1-yl)propoxy)pyridin-3-yl)benzenesulfonamide], the values for the IC50 against ATM (setting [1]) and on DNA-PK (ATP 20 μM) were 0.5 to 1 nM and less than 0.5 nM, respectively.

Consider `CN(C)CCCOc1ncc(-c2ccc3ncc4c(c3c2)C2(CCC2)C(=O)N4C)cc1NS(=O)(=O)N1CCC1` [Example 164, N-(2-(3-(Dimethylamino)propoxy)-5-(3′-methyl-2′-oxo-2′,3′-dihydrospiro[cyclobutane-1,1′-pyrrolo[2,3-c]quinolin]-8′-yl)pyridin-3-yl)azetidine-1-sulfonamide], for which the concentration for half-maximal inhibition (IC50) at ATM (setting [1]) is 1 to 100 nM; at DNA-PK (ATP 20 μM), less than 0.5 nM.

For the molecule `COc1ncc(-c2ccc3ncc4c(c3c2)C2(CC2)C(=O)N4)cc1NS(=O)(=O)c1ccccc1` [Example 19, N-(2-Methoxy-5-(2′-oxo-2′,3′-dihydrospiro [cyclopropane-1,1′-pyrrolo[2,3-c]quinolin]-8′-yl)pyridin-3-yl) benzenesulfonamide], the IC50 was 1 to 100 nM on ATM (setting [1]) and less than 0.5 nM at DNA-PK (ATP 20 μM).

Turning to `CN1C(=O)C2(CCC2)c2c1cnc1ccc(-c3cnc(N4CC(N5CCCC5)C4)c(NS(C)(=O)=O)c3)cc21` [Example 277, N-(5-(3′-Methyl-2′-oxo-2′,3′-dihydrospiro[cyclobutane-1,1′-pyrrolo[2,3-c]quinolin]-8′-yl)-2-(3-(pyrrolidin-1-yl)azetidin-1-yl)pyridin-3-yl)methanesulfonamide], the IC50 against ATM (setting [1]) and against DNA-PK (ATP 20 μM) was 1 to 100 nM each time.

Consider `CN1C(=O)C2(CC2)c2c1cnc1ccc(-c3cnc(OCCCN4CCCC4)c(NS(=O)(=O)c4ccccc4)c3)cc21` [Example 58, N-(5-(3′-Methyl-2′-oxo-2′,3′-dihydrospiro[cyclopropane-1,1′-pyrrolo[2,3-c]quinolin]-8′-yl)-2-(3-(pyrrolidin-1-yl)propoxy)pyridin-3-yl)benzenesulfonamide], for which the IC50 on ATM (setting [1]) and against DNA-PK (ATP 20 μM) was less than 0.5 nM in each case.

On to `CN(C)CCCOc1ncc(-c2ccc3ncc4c(c3c2)C2(CC2)C(=O)N4C)cc1NS(=O)(=O)c1ccsc1` [Example 92, N-(2-(3-(Dimethylamino)propoxy)-5-(3′-methyl-2′-oxo-2′,3′-dihydrospiro [cyclopropane-1,1′-pyrrolo[2,3-c]quinolin]-8′-yl)pyridin-3-yl)thiophene-3-sulfonamide], for which the IC50 at ATM (setting [1]) was 0.5 to 1 nM; against DNA-PK (ATP 20 μM) it was less than 0.5 nM.

With `Cc1ccc(S(=O)(=O)Nc2cc(-c3ccc4ncc5c(c4c3F)C3(CC3)C(=O)N5C)cnc2OCCCN(C)C)cc1` [Example 215, N-(2-(3-(Dimethylamino)propoxy)-5-(9′-fluoro-3′-methyl-2′-oxo-2′,3′-dihydrospiro[cyclopropane-1,1′-pyrrolo[2,3-c]quinolin]-8′-yl)pyridin-3-yl)-4-methylbenzenesulfonamide], the IC50 is 0.5 to 1 nM against ATM (setting [1]) and less than 0.5 nM against DNA-PK (ATP 20 μM).

For orientation: IC50 means the concentration needed to halve the response being measured. A lower IC50 goes with inhibition by little substance.
